In patent US20070248672A1, “Indole and Azaindole Derivatives with Antitumor Action” (priority 2004, published 2007):
Like-named read-outs stand apart in the source and are kept apart here.

What was measured:
HepG2 cells = assay: Antiproliferative activity, 48 h treatment, ATPlite luminescence assay, HepG2; assay type: cell-based, human; settings: Homo sapiens; HepG2, 48 h treatment; read-out: Antiproliferative activity (IC50 ± S.D.) HepG2 48 h treatment
Procedure: HepG2: maintained in EMEM medium+10% FCS.
2.3 Scheme of the Antiproliferative Activity Experiment (Treatment Time: 48 Hours)
The cells (concentration: 30,000 cells/ml) are seeded in 90 μl of the respective culture media in 96-well plates. 24 hours after seeding, an aliquot (10 μl) of the drug at the various concentrations is added (for each concentration there are 3 replicates). After 48 hours of treatment the antiproliferative effect is evaluated with a luminescence assay (Perkin Elmer Life Sciences ATPlite):
50 μl of a lysis solution are added to each well followed by an equal volume of a solution containing luciferase and D-luciferin. The ATP present in all the metabolically active cells brings about the transformation reaction of D-luciferin, catalysed by luciferase, to produce a luminescent signal as described in the following scheme: ATP+D-luciferin+O2→Oxyluciferin+AMP+PP1+CO2+Light
The luminescence produced (expressed in counts per second, CPS) is measured by means of a microplate scintillation analyzer (Perkin Elmer Life Sciences Top Count).
Percentage inhibition of luminescence in the treated cells compared to the control is calculated; concentration-response curves are then analysed using Grafit v.5.0.

HT29 cells [1] = assay: Co-treatment with topotecan, HT29 cells (Combination Index according to Kern); assay type: cell-based, human; settings: HT29; compound at 4 μM (3 experiments) and 8 μM (2 experiments), subtoxic doses
Procedure: (§1) The cells (HT29 and HT29/Mit: 40,000 cells/ml, LoVo, LoVo/Dx and HCT116: 50,000 cells/ml) are seeded in 100 μl of the respective culture media in 96-well plates. 24 hours after seeding, an aliquot (10 μl) of drug at the various concentrations is added. In the samples in which the effect of the combination of two compounds is to be tested the inhibitor is added immediately before the cytotoxic. For each dose or combination of doses/drugs the effect of the treatment is determined in 4-8 replicates.
(§2) After 72 hours of treatment the antiproliferative effect is evaluated using the sulforhodamine B (SRB) assay: the cells are fixed by adding 25 μl of 50% TCA to each well and left for 1 hour at 4° C. After washing them with water and allowing them to dry, 100 μl of 0.4% SRB in 1% acetic acid are added and left for 30 minutes at room temperature. After 4 washes in 1% acetic acid, they are left to dry then the dye fixed by the proteins is dissolved under basic conditions with 100 μl 10 mM cold Tris and the solution is read using a spectrophotometer at 550 nm.
(§3) Percentage cell growth is calculated as the optical density of treated samples compared to the optical density of controls (untreated cells).
The Combination Index (C.I.) was determined according to Kern's method, 1988 (who continued from Drewinko B, 1976) (Kem D. H., Cancer Res. 48, 117-121, 1988; Drewinko B., Cancer Biochem. Biophys. 1, 187-195, 1976) by means of the following formula: […], where SFa and SFb are the fractions of cells surviving to treatment with compound a and b, respectively; SFab is the fraction surviving to the combination of compounds a and b. If the result is =1, the interaction between the two compounds is additive; if it is >1, the interaction between the two compounds is synergistic; if it is <1, the interaction between the two compounds is antagonistic.

[2] = target: Vacuolar ATPase in human osteoclastoma (hOc) (Homo sapiens, UniProt P27449+Q13488); assay: Vacuolar ATPase inhibition in human osteoclastoma (hOc) microsomal fraction; assay type: biochemical; settings: 30 min, 37° C.
Procedure: 1.1 Determination of Vacuolar ATpase Inhibition in Human Osteoclastoma (hOc)
Osteoclast-like giant cells isolated from human osteoclastoma are homogenized using a glass-teflon homogeniser (1000 rpm) and the material is centrifuged for 20 minutes at 6000 g. The resultant pellet is resuspended and centrifuged at 100000 g for 60 minutes to sediment the microsomal fraction. The resultant pellet is resuspended in medium at pH 7.4 and stored under liquid nitrogen.
Inhibition of bafilomycin sensitive ATPase activity is assayed by measuring the release of inorganic phosphate during 30 minutes of incubation, at 37° C., of the human osteoclastoma microsomal fraction in 96-well plates. The reaction medium contains 1 mM ATP, 10 mM Hepes-Tris buffer pH 8, 50 mM KCl, 5 μM valinomycin, 5 μM nigericin, 1 mM CDTA-Tris, 100 μM ammonium molybdate, 0.2 M sucrose and the microsomal fraction (20 μg protein/ml). The reaction is initiated by adding MgSO4 and terminated, after 30 minutes, by adding 4 volumes of the reagent malachite green, prepared according to Chan K., Anal. Biochem. 157, 375-380, 1986.

HT29 cells [3] = assay: Antiproliferative activity, 72 h treatment, SRB assay, HT29; assay type: cell-based, human; settings: Homo sapiens
Procedure: HT29 and HT29/Mit (line obtained by prolonged exposure to mitoxantrone, and characterised by overexpression of BCRP, which confers cross resistance to topotecan, irinotecan and to its metabolite SN38): maintained in McCoy 5A medium+10% FCS.
2.2 Scheme of the Antiproliferative Activity Experiment (Treatment Time: 72 Hours)
as §1, §2, §3

Chain of Vacuolar ATPase in human osteoclastoma (hOc) (P27449 whole entry, looked up): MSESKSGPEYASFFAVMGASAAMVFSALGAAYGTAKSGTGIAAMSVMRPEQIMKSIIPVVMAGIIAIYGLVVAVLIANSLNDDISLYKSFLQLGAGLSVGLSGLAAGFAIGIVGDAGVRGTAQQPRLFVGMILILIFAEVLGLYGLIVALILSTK
Chain of Vacuolar ATPase in human osteoclastoma (hOc) (Q13488 whole entry, looked up): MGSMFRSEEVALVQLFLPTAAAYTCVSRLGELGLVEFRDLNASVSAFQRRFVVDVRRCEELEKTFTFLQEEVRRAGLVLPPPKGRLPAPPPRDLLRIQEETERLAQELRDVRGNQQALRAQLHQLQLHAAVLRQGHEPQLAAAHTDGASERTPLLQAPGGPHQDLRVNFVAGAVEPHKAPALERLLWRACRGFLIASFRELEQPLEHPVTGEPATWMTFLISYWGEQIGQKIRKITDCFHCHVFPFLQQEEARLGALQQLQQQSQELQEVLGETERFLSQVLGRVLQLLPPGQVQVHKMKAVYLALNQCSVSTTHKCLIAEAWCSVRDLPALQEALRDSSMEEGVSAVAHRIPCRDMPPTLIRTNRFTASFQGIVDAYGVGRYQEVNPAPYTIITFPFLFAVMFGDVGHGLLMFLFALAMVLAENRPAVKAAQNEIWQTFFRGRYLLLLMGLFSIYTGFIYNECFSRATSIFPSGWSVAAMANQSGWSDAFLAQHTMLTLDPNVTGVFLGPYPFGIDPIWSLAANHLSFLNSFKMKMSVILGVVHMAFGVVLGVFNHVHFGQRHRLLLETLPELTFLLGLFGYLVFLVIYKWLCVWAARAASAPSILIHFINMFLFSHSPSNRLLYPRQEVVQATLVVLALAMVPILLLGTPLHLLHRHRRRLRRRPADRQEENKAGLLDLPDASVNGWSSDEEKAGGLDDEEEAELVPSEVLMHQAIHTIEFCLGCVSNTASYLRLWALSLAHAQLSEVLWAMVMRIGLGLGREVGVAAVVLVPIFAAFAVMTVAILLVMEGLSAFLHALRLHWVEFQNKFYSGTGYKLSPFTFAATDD

## COC(=O)c1[nH]c2cc(OC)c(OC)cc2c1-c1ccc(OC)cc1 [Example 1, 5,6-Dimethoxy-3-(4-methoxy-phenyl)-1H-indole-2-carboxylic acid methyl ester]
HepG2 cells
  IC50: 24.4 ± 7.9 µM
HT29 cells [1]
  effect of combination with topotecan (Combination Index according to Kern): clear synergistic effect
[2]
  IC50: 0.5 µM
HT29 cells [3]; HT-29, HT29, after 72 hours of treatment, range stated for the group, read-out: IC50 values in the sensitive line
  IC50: 5 to 42 µM
HT29 cells [3]; HT-29, 72 h treatment, read-out: Antiproliferative activity (IC50 ± S.D.) HT-29 72 h treatment
  IC50: 14.4 ± 2.1 µM
